This is an account of results in patent US5750362A, “Methods for identifying substances with a potential herbicidal or growth-regulating action by means of plant transporter proteins, the use of the transporter proteins, and substances with a herbicidal and growth-regulating action” (BASF Aktiengesellschaft, priority 1993, dated 1998).

Experiment [1] concerns the target T1, sucrose transporter S21 (SoSUT1) (Spinacia oleracea, UniProt Q03411).
T1 construct: expressed in transfected cells; host or cells: Saccharomyces cerevisiae SUSY7
T1 sequence (Q03411 1-525): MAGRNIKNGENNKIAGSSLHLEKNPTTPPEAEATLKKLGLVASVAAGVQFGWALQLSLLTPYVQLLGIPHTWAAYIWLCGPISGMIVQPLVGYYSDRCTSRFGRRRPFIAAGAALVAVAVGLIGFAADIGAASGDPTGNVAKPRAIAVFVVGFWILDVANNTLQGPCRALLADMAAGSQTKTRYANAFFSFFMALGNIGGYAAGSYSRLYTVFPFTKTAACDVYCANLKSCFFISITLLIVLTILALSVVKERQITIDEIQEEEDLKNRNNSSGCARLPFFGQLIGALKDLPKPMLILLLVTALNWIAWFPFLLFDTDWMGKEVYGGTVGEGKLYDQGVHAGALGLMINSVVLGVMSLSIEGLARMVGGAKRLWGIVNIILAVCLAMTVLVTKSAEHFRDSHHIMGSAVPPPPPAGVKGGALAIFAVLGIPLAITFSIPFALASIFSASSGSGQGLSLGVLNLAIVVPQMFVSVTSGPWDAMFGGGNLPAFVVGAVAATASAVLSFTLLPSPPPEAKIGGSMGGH
As to the kind of experiment: [14C]-sucrose uptake by yeast strain SUSY7 expressing the spinach sucrose transporter. It is filed as cell-based. The note with it: [14C]-sucrose uptake, pH 3.8, read-out: Activity relative to the control [%]. Here is the method:
Yeast cells of the strain SUSY7 (Riesmeier et al., 1992, EMBO J. 11: 4705-4713) are used to identify substances which have an inhibitory effect on sucrose transporters from spinach. Cells of this strain are transformed with a cDNA sequence which codes for the sucrose transporter S21 (SoSUT1) from spinach and which ensures expression of a functional transporter in the cells. The yeast cells are cultured in minimal medium (SD+2% (w/v) sucrose, pH 3.8) at 28° C. and harvested in the logarithmic phase (OD600 =0.6). The cells are spun down at 4000 rpm for 10 minutes and washed twice with SD medium. A cell concentration of c=50 g/l in SD medium is adjusted according to the wet weight of the cells, and 200 μl aliquot fractions are taken. Before the actual reaction, the cells are incubated in 10 mM glucose for 5 min and adjusted to pH 3.8 with MES buffer. The reaction is started by adding 200 μl of a 0.2 mmol/l [14C]-sucrose solution (3 mCi/mmol) in SD medium (pH 3.8). After 20, 60, 120, 180 and 240 seconds, 70 μl portions of the suspension are removed and pipetted into 4 ml of ice-cold water in order to stop the reaction. The cells are filtered off on glass fiber filters and washed twice with ice-cold water. The radioactivity on the filters is subsequently determined in a liquid scintillation counter. The substances to be tested are added 30 seconds before addition of the sucrose. The uptake of radiolabeled sucrose without addition of a potential inhibitor is determined as one control. Cells of the strain SUSY7 which are not transformed with cDNA sequences coding for a sucrose transporter from spinach are employed as further control.
The various tested substances, their concentration and the activity of the transporter, shown as percentage activity of the control in which no potential inhibitors were added, are indicated. Substances which specifically show an inhibitory effect on the sucrose transporter S21 (SoSUT1), are tested for their herbicidal and growth-regulating effect on whole plants.

For experiment [2], the target named is T2, ammonium transporter AMT1 (Arabidopsis thaliana, UniProt P54144).
T2 construct: expressed in transfected cells; host or cells: Saccharomyces cerevisiae 26972c (mutations in MEP1 and MEP2)
T2 sequence (P54144 1-501): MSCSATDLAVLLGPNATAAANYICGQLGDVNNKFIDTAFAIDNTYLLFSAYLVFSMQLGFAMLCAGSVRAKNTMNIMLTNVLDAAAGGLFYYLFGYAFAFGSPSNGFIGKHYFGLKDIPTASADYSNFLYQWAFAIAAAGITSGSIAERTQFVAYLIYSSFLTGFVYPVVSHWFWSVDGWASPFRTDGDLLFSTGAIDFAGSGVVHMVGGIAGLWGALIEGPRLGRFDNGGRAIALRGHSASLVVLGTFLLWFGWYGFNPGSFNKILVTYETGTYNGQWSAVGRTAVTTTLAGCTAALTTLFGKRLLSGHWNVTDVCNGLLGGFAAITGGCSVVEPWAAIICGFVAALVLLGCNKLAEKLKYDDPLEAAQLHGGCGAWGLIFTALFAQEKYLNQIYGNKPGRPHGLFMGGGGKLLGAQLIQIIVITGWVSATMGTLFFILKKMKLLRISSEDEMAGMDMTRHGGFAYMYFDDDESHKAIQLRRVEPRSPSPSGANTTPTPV
As to the kind of experiment: cell-based. The note with it: pH 7; [14C]-methylamine uptake; tested substance 10 μM; read-out: Activity relative to the control [%].
Experimental: The measurements of transport identify inhibitors of plant ammonium transporters are carried out with the structural analog methylamine because radiolabeled ammonium is not commercially obtainable.
The yeast cells are transformed by standard methods with cDNA sequences which code for an ammonium transporter from plants and which permit expression of a functional transporter in the yeast cells. […] The cells are cultured in NAAG-medium (2% glucose, 1.7 g/l yeast nitrogen-base w/o amino acids and ammonium sulfate (Difco), supplemented with 500 μg/ml L-proline) at 28 degrees Celsius, and harvested in the logarithmic phase (OD660.=0.6). The cells are then spun down in a centrifuge at 4000 rpm and 4 degrees Celsius for 10 minutes, washed twice with 20 mM sodium phosphate buffer, pH 7, and taken up in the same buffer to an 0D660 of 8. 200 μl aliquot fractions of the cell suspension are taken. 5 minutes before the actual measurement,the yeasts are activated by addition of 100 mM glucose and incubated at 30 degrees Celsius. To start the reaction, 100 μl of the cell suspension are added to 100 µl of reaction mixture (20 mM Na phosphate buffer, pH7; 18.5 kBq of [^14 C]-methylamine (NEN); 100 M methylamine; substance to be tested depending on the experiment (see FIG. 4)). In each case 10, 60, 120 and 180 seconds after starting the reaction, 50 μl aliquots are taken, added to 4 ml of ice-cold 5 mM methylamine solution and filtered on glass fibre filters. After the filters have been washed with a further 8 ml of a methylamine solution, the radioactivity on the filters is subsequently determined in a liquid scintillation counter. Inhibitors are added 60 seconds before adding the glucose.
The uptake of radiolabeled methylamine without addition of a potential inhibitor is determined as one control.

The next experiment relates to sucrose transporters. The note with it: Bush, 1989, Plant Physiol. 89: 1318-1323; result in words; cited from earlier work.

`N#CC(C#N)=NNc1cccc(Cl)c1` [CCCP]: the figures for the remaining activity at 10 µM in experiment [1] (tested substance 10 μM) and in experiment [2] were 10% and 40%, respectively.
Regarding `CCOC(=O)OC(=O)OCC` [DEPC, diethyl pyrocarbonate], in experiment [1] (tested substance 0.5 mM), the remaining activity at 500 µM was 6%. Besides, the “Inhibition of sucrose transport” value in the experiment on sucrose transporters is listed as “highly effective transport inhibitors”.
